Tests used:
Fabry mice = experiment: Substrate reduction therapy in Fabry mouse model: Gb3 and lyso-Gb3 levels; assay type: in vivo; settings: male and female Fabry mice treated 4 months from ~8 months old; GZ 452 60 and 120 mg/kg/day, GZ 161 20 mg/kg/day
Description: In the following experiments, mice dosed with GCS inhibitors at either ˜60 mg/kg/day of (S)-Quinuclidin-3-yl(2-(2-(4-fluorophenyl)thiazol-4-yl)propan-2-yl)carbamate (S)-2-hydroxysuccinate salt (hereinafter “GZ 452”) or ˜300 mg/kg/day of (1R,2R)-Octanoic acid[2-(2′,3′-dihydro-benzo[1,4] dioxin-6′-yl)-2-hydroxy-1-pyrrolidin-1-ylmethyl-ethyl]-amide-L-tartaric acid salt (hereinafter “GZ 638”) as a component of the pelleted food diet provided ad libitum. Lipid analysis was by ESI/MS as described in Marshall et al., PLoS ONE 5:e15033 (2010). As discussed in further detail below, treatment started when the mice were 3, 8 or 12 months of age to test the efficacy at different disease severities. Blood and urine was collected monthly and periodic tissue harvests provided materials to evaluate efficacy of the therapy (Gb3 and lyso-Gb3 levels). […] As further discussed below, the efficacy of SMT was affected by the age of the mice at the start of treatment. Generally, the older the mouse, the higher the levels of Gb3 stored and thus a longer period of treatment was required in order to affect similar therapeutic benefit (see FIG. 4). The experiments and results are described further below.
In this experiment, Fabry mice were treated with GCS inhibitors in their diet for 4 months starting at 8 months old. […] Age-matched wild-type levels (WT) are also shown. […]

WT mice = experiment: In utero exposure: brain GluCer in newborn WT mice; assay type: in vivo, mouse
Description: To determine if further benefits could be achieved by prenatal exposure to GZ 161, a subset of pregnant K14 females received GZ 161 in food using a formulation calculated to provide 20 mg/kg/day during the final 5-7 days of gestation. Females receiving GZ 161 were switched to standard diet after delivery and the pups received daily IP injections of GZ 161 at a dose of 5 mg/kg (10 μl per gram of body weight) starting at P 1. A set of WT pups born to females receiving the drug or standard formula was sacrificed immediately after birth to determine whether in utero exposure to GZ 161 could reduce brain GSL levels.
Quantitative sphingolipid analysis was performed by liquid chromatography and tandem mass spectrometry (LC/MS/MS) as previously described in Merrill et al., Methods 36: 207-224 (2005). Briefly, 10 μl of brain tissue homogenate (tissue weight/water:100 mg/ml) was extracted with 1.00 ml of an organic solvent mixture (97% acetonitrile, 2% methanol, and 1% acetic acid, v/v) and vortexed vigorously for 10 min. Extracted sphingolipids (GluCer and GluSph) were directly separated by hydrophilic liquid chromatography (Atlantis HILIC column, Waters Corp.) and analyzed by triple quadrupole tandem mass spectrometry (API 4000, Applied Biosystems/MDS SCIEX) and compared with sphingolipid standards (Matreya, LLC; Pleasant Gap, Pa.)
Values shown correspond to means and error bars represent standard error of the mean. Comparisons between groups were analyzed by a one-way analysis of variance followed by Tukey's multiple comparison test. Comparison of substrate reduction in utero was analyzed by the unpaired t test with Welch's correction. Kaplan-Meier survival curves were analyzed using the log-rank test equivalent to the Mantel-Haenszel test. All statistical analyses were performed using GraphPad Prism v4.0 (GraphPad Software, San Diego, Calif.). Differences between group means with p<0.05 were considered significant.

CC(C)(NC(=O)OC1CN2CCC1CC2)c1cccc(-c2ccc(F)cc2)c1 (stereo not shown) [GZ 161, Quinuclidin-3-yl(2-(4′-fluoro-[1,1′-biphenyl]-3-yl)propan-2-yl)carbamate]
Gb3 in kidney tissue relative to untreated controls (Fabry mice): significantly reduced the amount of Gb3
decrease in GluCer levels in the newborn mouse brain (P0) (WT mice; WT dams treated, 20 mg/kg/day in food): ~5 fold
crossing the blood/placental barrier (WT mice; inferred from reduced GluCer in newborn brain after dosing pregnant WT mice): appears to cross the blood/placental barrier
GluCer load in whole brain homogenates at birth (P0) (WT mice; pregnant WT mice, 20 mg/kg/day in food): reduces the GluCer load
